Results as given in article PMC6099706, “Anti-Mycobacterium tuberculosis Activity of Esters of Quinoxaline 1,4-Di-N-Oxide” (Molecules : A Journal of Synthetic Chemistry and Natural …, 2018).
≈ marks a conversion by molar mass, not a printed value.

What was measured:
[1] = test system: Mycobacterium tuberculosis strain H37Rv; assay: microplate Alamar blue assay (MABA); format: cell-based; conditions: Mycobacterium tuberculosis, H37RV, M. tuberculosis H37Rv; lowest concentration effecting 90% inhibition
[2] = test system: nonreplicating persistent (NRP) M. tuberculosis strain; assay: microbe, parasite or virus in culture; format: cell-based, Mycobacterium tuberculosis; conditions: Mycobacterium tuberculosis; nonreplicating persistent strain; read-out: LORA MIC
M. tb H37Rv = assay: MIC on M. tb H37Rv (Table 4 panel); format: cell-based; conditions: Mycobacterium tuberculosis
M. fortuitum = assay: MIC on nontuberculous Mycobacterium clinical isolate; format: cell-based; conditions: Mycolicibacterium fortuitum
M. abscessus = assay: as above; format: cell-based; conditions: Mycobacteroides abscessus
M. chelonae = assay: as above; format: cell-based; conditions: Mycobacteroides chelonae
M. avium = assay: as above; format: cell-based
M. smegmatis = assay: as above; format: cell-based; conditions: Mycolicibacterium smegmatis
[3] = cytotoxicity on macrophages (Alamar blue) and selectivity index; format: cell-based, mouse; conditions: mouse, J774A.1 macrophage cells; for CC50 at 96 h: cytotoxicity on macrophage cell J774A.1 at 96 h; for CC50 at 6 h: cytotoxicity on macrophage cell J774A.1 at 6 h
Description: (§1) The determination of the half maximal cytotoxicity concentration (CC50) of the compounds T-006, T-011, T-018, T-022, T-069, T-085, T-088, and T-089 was carried out on the mouse macrophage cell line J774A.1 (ATCC TIB-67). Briefly, cell monolayers were prepared in 96-well plates with 10,000 cells per well in Ham’s F-12 medium supplemented with 10% Fetal bovine serum (FBS, By products, Guadalajara, Mexico) and antibiotics (penicillin and gentamicin). Five concentrations from 100 to 0.5 μg/mL of each of the compounds were tested. The cells were incubated for a period of 6 h (^−) or 96 h (^+). Before completing this period, 20 μL of Alamar blue solution was added to each well, quantifying the relative fluorescence units in a fluorometer (Fluoroskan Ascent FL, Labsystems). The percentage of cytotoxicity at each concentration was determined by comparing the values against the control of cells without treatment. The CC50 was determined with the Probit regression analysis (MedCalc Statistical Software version 18.5, Ostend, Belgium). Selectivity index was calculated as the ratio of the CC50 on the macrophage cell line J774A.1 and the MIC value against M. tuberculosis strain H37Rv.

[4] = test system: mouse macrophage cell line J774A.1; assay: as above; format: cell-based; conditions: ratio of CC50 on J774A.1 and MIC against M. tuberculosis H37Rv
Description: as §1

[5] = target: M. tuberculosis gyrase (GyrA and Gyr B subunits) (Mycobacterium tuberculosis, UniProt P9WG45+P9WG47); assay: M. tuberculosis gyrase supercoiling assay; format: biochemical; conditions: at 50 μM
Sequence of M. tuberculosis gyrase (GyrA and Gyr B subunits) (P9WG45 whole entry): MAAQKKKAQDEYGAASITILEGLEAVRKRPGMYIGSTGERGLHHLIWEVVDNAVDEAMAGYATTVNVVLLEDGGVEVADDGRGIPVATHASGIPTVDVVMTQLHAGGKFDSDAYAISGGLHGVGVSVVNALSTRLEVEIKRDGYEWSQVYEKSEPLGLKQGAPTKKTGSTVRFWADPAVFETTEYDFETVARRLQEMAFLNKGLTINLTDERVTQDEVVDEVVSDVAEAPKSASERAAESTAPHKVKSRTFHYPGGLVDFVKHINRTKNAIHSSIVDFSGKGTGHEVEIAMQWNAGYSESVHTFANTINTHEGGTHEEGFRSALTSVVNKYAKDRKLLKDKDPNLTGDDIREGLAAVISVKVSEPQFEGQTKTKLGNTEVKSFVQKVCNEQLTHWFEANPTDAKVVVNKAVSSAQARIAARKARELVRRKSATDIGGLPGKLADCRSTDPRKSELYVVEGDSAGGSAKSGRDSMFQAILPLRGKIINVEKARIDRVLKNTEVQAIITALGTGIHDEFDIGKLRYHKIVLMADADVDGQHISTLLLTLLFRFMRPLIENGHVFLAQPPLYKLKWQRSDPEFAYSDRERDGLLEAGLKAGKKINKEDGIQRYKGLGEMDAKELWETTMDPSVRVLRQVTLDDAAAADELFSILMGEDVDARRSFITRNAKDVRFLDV
Sequence of M. tuberculosis gyrase (GyrA and Gyr B subunits) (P9WG47 whole entry): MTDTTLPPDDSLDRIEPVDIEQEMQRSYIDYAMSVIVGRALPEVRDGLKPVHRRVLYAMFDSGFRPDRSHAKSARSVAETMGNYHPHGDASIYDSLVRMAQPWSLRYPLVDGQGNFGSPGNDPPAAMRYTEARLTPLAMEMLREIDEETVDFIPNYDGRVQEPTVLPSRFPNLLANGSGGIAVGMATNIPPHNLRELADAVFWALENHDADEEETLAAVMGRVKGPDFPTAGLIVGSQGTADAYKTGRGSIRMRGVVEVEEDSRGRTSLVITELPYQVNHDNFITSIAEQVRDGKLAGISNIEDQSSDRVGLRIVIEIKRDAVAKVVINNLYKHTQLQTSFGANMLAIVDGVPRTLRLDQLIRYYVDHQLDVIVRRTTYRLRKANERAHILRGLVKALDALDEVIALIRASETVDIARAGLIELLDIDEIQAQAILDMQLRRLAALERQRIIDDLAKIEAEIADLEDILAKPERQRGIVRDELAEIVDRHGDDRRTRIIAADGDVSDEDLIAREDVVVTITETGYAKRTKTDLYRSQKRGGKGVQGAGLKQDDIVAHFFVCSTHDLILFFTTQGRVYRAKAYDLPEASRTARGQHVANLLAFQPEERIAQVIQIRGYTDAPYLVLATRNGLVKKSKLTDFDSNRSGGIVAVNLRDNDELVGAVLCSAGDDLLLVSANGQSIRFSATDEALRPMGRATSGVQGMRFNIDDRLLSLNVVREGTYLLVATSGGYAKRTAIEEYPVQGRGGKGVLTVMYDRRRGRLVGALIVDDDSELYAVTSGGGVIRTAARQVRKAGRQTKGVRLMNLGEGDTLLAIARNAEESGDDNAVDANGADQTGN
Description: The activity of the enzyme was determined prior to the testing of the quinoxaline 1,4-di-N-oxide derivatives and 1 U was defined as the amount of enzyme required to just fully supercoil the substrate under test conditions. Compounds were tested at 50 μM. Final DMSO concentration in the assays was 1% (v/v).
1 U of M. tuberculosis gyrase (GyrA and Gyr B subunits) (final concentration in assay 50 nM) was incubated with 0.5 μg of relaxed pBR322 DNA in a 30 μL reaction at 37 °C for 30 min under the following conditions: 50 mM HEPES. KOH (pH 7.9), 6 mM magnesium acetate, 4 mM DTT, 1 mM ATP, 100 mM potassium glutamate, 2 mM spermidine and 0.05 mg/mL albumin.
Each reaction was stopped by the addition of 30 μL chloroform/iso-amyl alcohol (26:1) and 20 μL Stop Dye (40% sucrose, 100 mM Tris.HCl (pH 7.5), 10 mM EDTA, 0.5 μg/mL bromophenol blue), before being loaded on a 1.0% TAE (Tris.acetate […], EDTA […]) gel run at 80 V for 2 h.
Bands were visualized by ethidium staining for 10 min, destained for 10 min in water, analyzed by gel documentation equipment (Syngene, Cambridge, UK), and quantified using Syngene software (Genetools version 4.00 (1997–1998), Syngene, A division of Synoptics Corp, Cambridge, UK).
Raw gel data (fluorescent band volumes) collected from Syngene’s GeneTools gel analysis software were converted to a % of the 100% control (the supercoiled enzyme plus DMSO control DNA band). These were analyzed using SigmaPlot Version 13.0 (Systat Software Inc., London, UK; 2016).

[6] = stability in human plasma by UPLC-MS; format: in vitro ADME; conditions: 37 °C, 24 h
Description: Compounds T-018 and T-069 were selected to analyze their stability in human plasma. A total of 1 mg of each of the two compounds was dissolved in 1 mL of dichlorometane. Then, 0.1 mL was added to 0.9 mL of 0.1% formic acid in acetonitrile for analysis by UPLC with an ACQUITY QDa mass detector from Waters (Milford, MA, USA) under the following conditions: column: ACQUITY UPLC® BEH C18 1.7 µm, 2.1 × 100 mm; mobile phase: 0.1% formic acid/acetonitrile; run time: 5 min; flow rate: 0.3 mL/min; injection volume: 0.5 µL; temperature: 40 °C. After that, 3 mL of human plasma was obtained from a volunteer under medical supervision and following the standard procedures. Then, 1 mg of T-018 and T-069 were dissolved with DMSO 2% and added to 1 mL of human plasma. Samples were incubated at 37 °C for 12 and 24 h. T-018 and T-069 were obtained by liquid extraction with dichloromethane (10 mL) three times and the solvent was eliminated for vacuum pressure. After that, 1 mL of dichlorometane was added and 0.1 mL was added to 0.9 mL of 0.1% formic acid in acetonitrile and analyzed by UPLC-MS. Percentage of degradation was calculated considering the area under the curve of each peak/the area under the curve of all peaks × 100% at 24 h only.

Structure (SMILES)	MIC [1] [µg/mL]	MIC [2] [µg/mL]	MIC (M. tb H37Rv) [µg/mL]	MIC (M. fortuitum) [µg/mL]	MIC (M. abscessus) [µg/mL]	MIC (M. chelonae) [µg/mL]	MIC (M. avium) [µg/mL]	MIC (M. smegmatis) [µg/mL]	CC50 at 96 h [3] [µg/mL]	CC50 at 6 h [3] [µg/mL]	SI (selectivity index) [4]	inhibitory effect on M. tuberculosis gyrase supercoiling [5]	stability in human plasma [6]
COC(=O)c1ccc2c(c1)[n+]([O-])c(C(=O)OC)c(C)[n+]2[O-] [Compound T-022]	0.29 (≈ 0.992 µM)	0.56 (≈ 1.92 µM)	0.5 (≈ 1.71 µM)	2.5 (≈ 8.55 µM)	> 10	2.5 (≈ 8.55 µM)	2.5 (≈ 8.55 µM)	0.62 (≈ 2.12 µM)	86.2 (≈ 295 µM)				
CCCOC(=O)c1ccc2c(c1)[n+]([O-])c(C(=O)c1cccs1)c(C(F)(F)F)[n+]2[O-] [Compound T-089]	0.12 (≈ 0.281 µM)	0.15 (≈ 0.352 µM)	0.5 (≈ 1.17 µM)	> 10	> 10	> 10	0.62 (≈ 1.45 µM)	> 10		24.3 (≈ 56.9 µM)	48.54		
CC(C)OC(=O)c1ccc2c(c1)[n+]([O-])c(C(=O)C(C)C)c(C(F)(F)F)[n+]2[O-] [Compound T-085]	≤ 0.15	0.13 (≈ 0.337 µM)	1 (≈ 2.59 µM)	2.5 (≈ 6.47 µM)	2.5 (≈ 6.47 µM)	5 (≈ 12.9 µM)	0.62 (≈ 1.6 µM)	1.25 (≈ 3.24 µM)		45.4 (≈ 118 µM)	45.42		
CCOC(=O)c1ccc2c(c1)[n+]([O-])c(C(C)=O)c(C(F)(F)F)[n+]2[O-] [Compound T-006]	0.29 (≈ 0.842 µM)	0.42 (≈ 1.22 µM)	2 (≈ 5.81 µM)	> 10	> 10	> 10	2.5 (≈ 7.26 µM)	> 10	> 100		>50		
CCCOC(=O)c1ccc2c(c1)[n+]([O-])c(C(=O)OC)c(C)[n+]2[O-] [Compound T-088]	≤ 0.15	0.27 (≈ 0.843 µM)	0.5 (≈ 1.56 µM)	> 10	> 10	> 10	> 10	2.5 (≈ 7.81 µM)	36.5 (≈ 114 µM)		73.02		
CCOC(=O)c1ccc2c(c1)[n+]([O-])c(C(=O)c1cccs1)c(C(F)(F)F)[n+]2[O-] [Compound T-011]	≤ 0.15	0.21 (≈ 0.509 µM)	0.5 (≈ 1.21 µM)	2.5 (≈ 6.06 µM)	> 10	> 10	< 0.31	0.62 (≈ 1.5 µM)		1.67 (≈ 4.05 µM)	3.34	none of the compounds showed an inhibitory effect	
COC(=O)c1ccc2c(c1)[n+]([O-])c(C(=O)c1ccccc1)c(C(F)(F)F)[n+]2[O-] [Compound T-018]	≤ 0.15	0.34 (≈ 0.867 µM)	1 (≈ 2.55 µM)	> 10	5 (≈ 12.7 µM)	> 10	2.5 (≈ 6.37 µM)	2.5 (≈ 6.37 µM)		35.4 (≈ 90.2 µM)	35.37	none of the compounds showed an inhibitory effect	
CC(C)OC(=O)c1ccc2c(c1)[n+]([O-])c(C(=O)c1cccs1)c(C(F)(F)F)[n+]2[O-] [Compound T-069]	≤ 0.15	0.23 (≈ 0.539 µM)	1 (≈ 2.35 µM)	> 10	> 10	2.5 (≈ 5.86 µM)	5 (≈ 11.7 µM)	> 10		41.3 (≈ 96.8 µM)	41.26	none of the compounds showed an inhibitory effect	high stability
